# Where “and” joins values, the source holds several entries; their conditions need not be identical. Equal entries are not always repeated. Where two headings read alike, the source gives them in different places.
# Assays:
# [1] = AF dye fluorescence quenching assay; conditions: at 30 µM; n = 1
# Description: Employing filter criteria like < 65% control in the primary assay and a minimum difference of 30% to the SR-B1 counter screen, about 3300 compounds remained. These compounds were tested in concentration response using both assay formats (Supplementary Fig. 1). To qualify the identified compounds further we developed additional assays with the goal to identify compounds that merely quenched the AF dye fluorescence. In this assay, the fluorescence signal of human AF647- or AF594-labeled oxLDL was recorded in the presence and absence of compound. Only compounds without relevant quenching were subsequently selected for further analysis.
# Furthermore, quenching assays were established to eliminate compounds showing quenching of the AF594 or AF647 dye fluorescence. For this, human oxLDL labeled with either AF594 or AF647 was incubated with compound and the fluorescence signal with and without compound was measured to determine the quenching of the fluorescence. For both compounds quenching of fluorescence has been tested with n = 1.
# human LOX-1 receptor = target: T1, human LOX-1 receptor (Homo sapiens, UniProt P78380); experiment: LOX-1 cellular oxLDL uptake assay (AF594-oxLDL, CHO-Trex-hLOX1); format: cell-based
# T1 construct: the cellular HTS screen was done using full-length LOX-1 and human oxLDL; expressed in transfected cells; host or cells: CHO-K1 T-REx (CHO-Trex-hLOX1 clone), vector pT-Rex-EXP-30-hLOX
# From the text: To identify small molecule inhibitors of LOX-1 mediated oxLDL uptake we developed a cellular high throughput screening (HTS) assay. Small molecule compounds were screened for their ability to block the uptake of AlexaFluor594 (AF594)-labeled human oxLDL into a CHO-K1 cell line with inducible expression of the human LOX-1 receptor. This readout was visualized and images were quantified by fluorescence microscopy (Fig. 1a). As positive controls, cells without induction of LOX-1 as well as a blocking anti-LOX-1 antibody[29] was used (Fig. 1b). More than one million different compounds were screened. Lead-like compounds (molecular weight above 270 Da) were tested at a concentration of 5 µg/ml, whereas a fragment subset (molecular weight below 270 Da) was tested at a tenfold higher concentration to ensure detection of more weakly active but ligand-efficient fragment-like compounds. Employing a hit criterion of lower than 50% of control, a hit rate of 2.8% was observed (Supplementary Fig. 1). These hits were further confirmed by performing two independent assay runs with fresh compound samples, resulting in a confirmation rate of 80% and a confirmed hit rate of 2.2% (Supplementary Fig. 2). To filter out unspecific or false-positive hits, a counter screen was developed and applied for testing the primary hits[30]–[32]. The assay format was identical to the primary assay besides employing a CHO cell line with inducible expression of human HDL scavenger receptor class B type I (SR-BI), an alternative scavenger receptor with low sequence and structural homology to human LOX-1 (Supplementary Fig. 1). Human SR-B1 is a cell surface glycoprotein most highly expressed in liver and steroidogenic tissues and plays a key role in mediating selective HDL cholesterol (HDL-C) uptake in the liver. Its regulation of HDL-C metabolism is believed to be relevant for cardiovascular health and the receptor was therefore chosen as a counter target. Using this single assay, we eliminated compounds that blocked both receptors presumably via an unspecific, non-target related mechanism (Supplementary Fig. 3).
# A recombinant CHO-K1 cell line was generated to stably express human LOX-1 under control of a Tetracycline inducible promoter: using Gateway® Cloning (Invitrogen), the hLOX-1 cDNA was cloned into pT-Rex-DEST-30 thus generating pT-Rex-EXP-30-hLOX. The CHO-K1 T-REx host cell line was then transfected with the expression vector pT-Rex-EXP-30-hLOX. Stably transfected cells were selected by Geneticin resistance. Single cell clones expressing human LOX-1 upon induction with Doxycycline were isolated and the best clone selected by qRT-PCR and FACS analysis (CHO-Trex-hLOX1 cell clone). Cells expressing human SR-BI were prepared and used for the assay in a similar fashion (CHO-Trex-hSR-B1 cell line). […]
# LOX129 (LOX-1 129-273) = target: T2, LOX129 (LOX-1 129-273) (Homo sapiens, UniProt P78380); experiment: Surface plasmon resonance, immobilized LOX129; format: binding
# T2 construct: 6His-tag with thrombin cleavage site (N, cleaved yes); made in house; host or cells: E. coli SHuffle cells (New England BioLabs), pET28a
# Description: To enable surface plasmon resonance spectroscopy (SPR), LOX129 was immobilized on a SPR chip by amine coupling and compounds were analyzed for binding. Based on the individual sensorgrams the compounds were classified as non-binders, over-stoichiometric binders or dose-dependent binders. In total four different structural classes could be confirmed as dose-dependent and stoichiometric binders. […] The mean binding ratio is 0.78 (Supplementary Table 3). Assuming a high percentage of active, binding competent protein on the chip surface, this ratio represents less than one BI-0115 molecule per LOX-1 monomer.
# Binding studies were performed using a Biacore T200 instrument (GE Healthcare) at 25 °C in 20 mM HEPES pH 6.8, 150 mM NaCl, 0.05% Tween 20, and 1% DMSO at a flow rate of 30 μL/min. The interaction analyses were performed in the multi-cycle kinetic mode using 120 s association time and 600 s dissociation time at the following LOX-1 inhibitor concentrations 0.391, 0.78, 1.56, 3.125, 6.25, 12.5 and 25 µM. Data were analyzed using the Biacore T200 Evaluation Software 2.0. Due to a transient binding, the KD was determined from a plot of steady state response levels against analyte concentration (affinity plot). The mean KD value was determined from four individual experiments (Supplementary Table 3). The binding ratio is the average number of compound molecules bound per LOX-1 protein on the surface.
smiles,measurement,setting,value
CCCN1C(=O)c2ccc(Cl)cc2Nc2ncccc21 [BI-0115],Quench Assay,[1],−9.1%
same,IC50,"human LOX-1 receptor; eight independent measurements 1-8, Supplementary Table 1, read-out: IC50 on LOX-1, individual measurements",7.55 µM and 7.15 µM and 3.34 µM and 2.01 µM and 5.85 µM and 6.95 µM and 5.11 µM and 4.97 µM
same,extent of inhibition of oxLDL uptake in the cellular context,"human LOX-1 receptor; in words, reply to reviewers",full inhibition
same,IC50,"human LOX-1 receptor; mean, BI-0115 n = 8, BI-1580 n = 2, inhibition of AF594-oxLDL internalization, read-out: LOX-1 IC50",5.37 µM and 5.4 µM
same,IC50,"human LOX-1 receptor; single curve of Fig. 1c, n = 2 per concentration, R^2 = 0.98, read-out: IC50, representative concentration response curve",7.2 µM
same,SPR binding kinetics,LOX129 (LOX-1 129-273); in words,fast binding kinetics
same,SPR binding ratio,"LOX129 (LOX-1 129-273); mean of n = 4, compound molecules bound per LOX-1 protein on the surface",0.78
same,Kd,"LOX129 (LOX-1 129-273); mean of n = 4, steady-state fit, 25 °C, read-out: SPR Kd",4.32 µM and 4.3 µM
same,"SPR binding ratio, individual measurements","LOX129 (LOX-1 129-273); measurements 1-4, Supplementary Table 3",0.79 and 0.84 and 0.73 and 0.77
same,Kd,"LOX129 (LOX-1 129-273); measurements 1-4, Supplementary Table 3, read-out: SPR KD, individual measurements",3.8 µM and 4.6 µM and 4.12 µM and 4.76 µM

# From publication PMC9814544 (Communications Chemistry, 2020)
